The source of these data is patent publication US11008317B2, “Triazolopyridine inhibitors of myeloperoxidase and/or EPX” (priority 2016, dated 2021).

In test [1] the target is T1, myeloperoxidase (Homo sapiens, UniProt P05164).
T1 sequence (P05164 49-745): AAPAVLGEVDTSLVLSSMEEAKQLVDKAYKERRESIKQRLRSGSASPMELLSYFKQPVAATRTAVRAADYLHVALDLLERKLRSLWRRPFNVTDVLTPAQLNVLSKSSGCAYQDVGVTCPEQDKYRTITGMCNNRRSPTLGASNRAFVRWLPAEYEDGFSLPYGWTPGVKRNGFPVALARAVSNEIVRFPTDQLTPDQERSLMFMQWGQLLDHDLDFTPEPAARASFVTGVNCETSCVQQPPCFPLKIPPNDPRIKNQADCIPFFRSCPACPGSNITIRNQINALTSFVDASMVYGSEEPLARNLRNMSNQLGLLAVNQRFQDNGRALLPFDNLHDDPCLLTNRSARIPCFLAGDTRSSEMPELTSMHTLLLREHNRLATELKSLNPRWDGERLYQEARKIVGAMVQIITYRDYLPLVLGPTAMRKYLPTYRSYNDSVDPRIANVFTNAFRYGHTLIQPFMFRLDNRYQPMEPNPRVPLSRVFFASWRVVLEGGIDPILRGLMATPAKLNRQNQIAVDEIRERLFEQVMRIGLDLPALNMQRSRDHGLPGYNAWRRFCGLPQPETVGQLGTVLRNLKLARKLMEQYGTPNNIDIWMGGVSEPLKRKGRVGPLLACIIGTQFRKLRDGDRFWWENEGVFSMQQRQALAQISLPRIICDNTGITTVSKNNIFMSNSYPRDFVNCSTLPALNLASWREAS
The test is described as follows: MPO Chlorination Assay (APF Assay). Format: biochemical. The settings on record: potency range class, read-out: APF Assay IC50 value.

For test [2], the target named is T1, myeloperoxidase. The test is described as follows: MPO Peroxidation Assay (Amplex Red Assay). Format: biochemical. The note with it: potency range class, read-out: Amplex Red Assay IC50 value.

Structures are written as SMILES.

The IC50 is the concentration needed to halve the response being measured. For `CC1(C)C[C@@H](NCCC(c2ccccc2)c2cc(N)nc3[nH]nnc23)c2ccccc21` (stereo partly drawn) [Example 85, 7-(3-{[(1R)-3,3-dimethyl-2,3-dihydro-1H-inden-1-yl]amino}-1-phenylpropyl)-3H-[1,2,3]triazolo [4,5-b]pyridin-5-amine], the half-inhibitory concentration (IC50) is 1 to 100 nM in test [1] and 101 to 999 nM in test [2].
The corresponding values for `CC1(C)C[C@H](NCCC(c2ccccc2)c2cc(N)nc3[nH]nnc23)c2ccccc21` (stereo partly drawn) [Example 87, 7-(3-{[(1S)-3,3-dimethyl-2,3-dihydro-1H-inden-1-yl]amino}-1-phenylpropyl)-3H-[1,2,3]triazolo [4,5-b]pyridin-5-amine] are 1 to 100 nM and 101 to 999 nM.
As for `CC1C[C@@H](NCCC(c2ccccc2)c2cc(N)nc3[nH]nnc23)c2ccccc21` (stereo partly drawn) [Example 88, 7-(3-{[(1R)-3-methyl-2,3-dihydro-1H-inden-1-yl]amino}-1-phenylpropyl)-3H-[1,2,3]triazolo[4,5-b]pyridin-5-amine], the concentration for half-maximal inhibition (IC50) in test [1] and in test [2] was 101 to 999 nM throughout.
As to `Nc1cc(C(CCNCc2ccccc2OC(F)(F)F)c2ccccc2)c2nn[nH]c2n1` (stereo not drawn) [Example 89, 7-[1-phenyl-3-({[2-(trifluoromethoxy)phenyl]methyl}amino)propyl]-3H-[1,2,3] triazolo[4,5-b] pyridin-5-amine], the values for the half-maximal inhibitory concentration (IC50) in test [1] and in test [2] were 101 to 999 nM and 1000 to 10000 nM, respectively.
The corresponding values for `Nc1cc(C(CCNC2CCN(c3ccccc3)CC2)c2ccccc2)c2nn[nH]c2n1` (stereo not drawn) [Example 92, N-(3-{5-amino-3H-[1,2,3]triazolo [4,5-b]pyridin-7-yl}-3-phenylpropyl)-1-phenylpiperidin-4-amine] are 1 to 100 nM and 1000 to 10000 nM.
The corresponding values for `CC1C[C@H](NCCC(c2ccccc2)c2cc(N)nc3[nH]nnc23)c2ccccc21` (stereo partly drawn) [Example 95, 7-(3-{[(1S)-3-methyl-2,3-dihydro-1H-inden-1-yl]amino}-1-phenylpropyl)-3H-[1,2,3]triazolo[4,5-b]pyridin-5-amine] are 1 to 100 nM and 101 to 999 nM.
The corresponding values for `CC(C)(C)C1CCC(NCCC(c2ccccc2)c2cc(N)nc3[nH]nnc23)CC1` (stereo not drawn) [Example 96, 7-{3-[(4-tert-butylcyclohexyl)amino]-1-phenylpropyl}-3H-[1,2,3]triazolo[4,5-b] pyridin-5-amine] are 101 to 999 nM and 1000 to 10000 nM.
For the molecule `CC1C[C@@H](NCCC(c2ccccc2)c2cc(N)nc3[nH]nnc23)c2ccccc21` (stereo partly drawn) [Example 98, 7-(3-{[(1R)-3-methyl-2,3-dihydro-1H-inden-1-yl]amino}-1-phenylpropyl)-3H-[1,2,3]triazolo [4,5-b] pyridin-5-amine], the IC50 was 1 to 100 nM in test [1] and 101 to 999 nM in test [2].
On to `CC1C[C@H](NCCC(c2ccccc2)c2cc(N)nc3[nH]nnc23)c2ccccc21` (stereo partly drawn) [Example 99, 7-(3-{[(1S)-3-methyl-2,3-dihydro-1H-inden-1-yl]amino}-1-phenylpropyl)-3H-[1,2,3]triazolo[4,5-b] pyridin-5-amine], for which the 50% inhibitory concentration (IC50) lay in the range of 1 to 100 nM in test [1] and 101 to 999 nM in test [2].
The corresponding values for `CC(C)(CNCCC(c1ccccc1)c1cc(N)nc2[nH]nnc12)c1ccccc1` (stereo not drawn) [Example 104, 7-{3-[(2-methyl-2-phenylpropyl)amino]-1-phenylpropyl}-3H-[1,2,3]triazolo[4,5-b] pyridin-5-amine] are 101 to 999 nM and 101 to 999 nM.
The corresponding values for `Nc1cc(C(CCNC2CCC(c3cccc(Cl)c3)CC2)c2ccccc2)c2nn[nH]c2n1` (stereo not drawn) [Example 105, 7-(3-{[4-(3-chlorophenyl)cyclohexyl]amino}-1-phenylpropyl)-3H-[1,2,3]triazolo[4,5-b]pyridin-5-amine] are 1 to 100 nM and 1000 to 10000 nM.
Consider `Nc1cc(C(CCNCCCc2ccccc2)c2ccccc2)c2nn[nH]c2n1` (stereo not drawn) [Example 106, 7-{1-phenyl-3-[(3-phenylpropyl)amino]propyl}-3H-[1,2,3] triazolo[4,5-b] pyridin-5-amine], for which the IC50 in test [1] and in test [2] was 101 to 999 nM in each case.
In the case of `Nc1cc(C(CCN[C@H]2CC[C@@H](c3ccc(Cl)cc3)CC2)c2ccccc2)c2nn[nH]c2n1` (stereo partly drawn) [Example 107, 7-(1-phenyl-3-{[(1s,4s)-4-(4-chlorophenyl)cyclohexyl]amino}propyl)-3H-[1,2,3] triazolo[4,5-b] pyridin-5-amine], the IC50 was in the range of 1 to 100 nM in test [1] and 101 to 999 nM in test [2].
The corresponding values for `Nc1cc(C(CCN[C@H]2CC[C@H](c3ccc(Cl)cc3)CC2)c2ccccc2)c2nn[nH]c2n1` (stereo partly drawn) [Example 108, 7-(1-phenyl-3-{[(trans)-4-(4-chlorophenyl)cyclohexyl]amino}propyl)-3H-[1,2,3] triazolo[4,5-b] pyridin-5-amine] are 1 to 100 nM and 101 to 999 nM.
On to `Nc1cc(C(CCNCCc2ccccc2)c2ccccc2)c2nn[nH]c2n1` (stereo not drawn) [Example 109, 7-{1-phenyl-3-[(2-phenylethyl)amino]propyl}-3H-[1,2,3] triazolo[4,5-b] pyridin-5-amine], for which the IC50 in test [1] and in test [2] was 101 to 999 nM each time.
Take `CC1(NCCC(c2ccccc2)c2cc(N)nc3[nH]nnc23)CCc2ccccc21` (stereo not drawn) [Example 110, 7-{3-[(1-methyl-2,3-dihydro-1H-inden-1-yl)amino]-1-phenylpropyl}-3H-[1,2,3]triazolo[4,5-b]pyridin-5-amine]: the IC50 in test [1] and in test [2] was 101 to 999 nM in each case.
`Nc1cc(C(CCNC2CCC(c3ccc(F)cc3)CC2)c2ccccc2)c2nn[nH]c2n1` (stereo not drawn) [Example 112, 7-(3-{[4-(4-fluorophenyl)cyclohexyl]amino}-1-phenylpropyl)-3H-[1,2,3]triazolo [4,5-b]pyridin-5-amine]: the IC50 in test [1] and in test [2] was 101 to 999 nM in each case.
With `Nc1cc(C(CCNC2(CO)CCC(c3ccccc3)CC2)c2ccccc2)c2nn[nH]c2n1` (stereo not drawn) [Example 116, {1-[(3-{5-amino-3H-[1,2,3]triazolo[4,5-b]pyridin-7-yl}-3-phenylpropyl)amino]-4-phenylcyclohexyl} methanol], the concentration for half-maximal inhibition (IC50) in test [1] is 1 to 100 nM; in test [2], 101 to 999 nM.
The corresponding values for `NC(=O)c1ccc(C2CCC(NCCC(c3ccccc3)c3cc(N)nc4[nH]nnc34)CC2)cc1` (stereo not drawn) [Example 117, 4-{4-[(3-{5-amino-3H-[1,2,3]triazolo [4,5-b]pyridin-7-yl}-3-phenylpropyl)amino]cyclohexyl} benzamide] are 1 to 100 nM and 101 to 999 nM.
The corresponding values for `NC(=O)c1ccc(C2CCC(NCCC(c3ccccc3)c3cc(N)nc4[nH]nnc34)CC2)cc1` (stereo not drawn) [Example 118, 4-{4-[(3-{5-amino-3H-[1,2,3]triazolo [4,5-b]pyridin-7-yl}-3-phenylpropyl)amino]cyclohexyl} benzamide] are 101 to 999 nM and 101 to 999 nM.
As for `CC(C)(Cc1ccccc1)NCCC(c1ccccc1)c1cc(N)nc2[nH]nnc12` (stereo not drawn) [Example 119, 7-{3-[(2-methyl-1-phenylpropan-2-yl)amino]-1-phenylpropyl}-3H-[1,2,3]triazolo [4,5-b]pyridin-5-amine], the concentration for half-maximal inhibition (IC50) lay in the range of 1 to 100 nM in test [1] and 101 to 999 nM in test [2].
For `Nc1cc(C(CCNCC(c2ccccc2)c2ccccc2)c2ccccc2)c2nn[nH]c2n1` (stereo not drawn) [Example 120, 7-{3-[(2,2-diphenylethyl)amino]-1-phenylpropyl}-3H-[1,2,3]triazolo[4,5-b]pyridin-5-amine], the IC50 in test [1] fell in the range of 1 to 100 nM; in test [2] it was 1000 to 10000 nM.
With `COc1ccc2c(c1)CC[C@H]2NCCC(c1ccccc1)c1cc(N)nc2[nH]nnc12` (stereo partly drawn) [Example 121, 7-(3-{[(1R)-5-methoxy-2,3-dihydro-1H-inden-1-yl]amino}-1-phenylpropyl)-3H-[1,2,3]triazolo[4,5-b]pyridin-5-amine], the half-inhibitory concentration (IC50) in test [1] and in test [2] was 101 to 999 nM each time.
With `Nc1cc(C(CCN[C@@H]2CCc3c(Cl)cc(Cl)cc32)c2ccccc2)c2nn[nH]c2n1` (stereo partly drawn) [Example 123, 7-(3-{[(1R)-4,6-dichloro-2,3-dihydro-1H-inden-1-yl]amino}-1-phenylpropyl)-3H-[1,2,3]triazolo[4,5-b]pyridin-5-amine], the IC50 in test [1] and in test [2] was 101 to 999 nM throughout.
Consider `Nc1cc(C(CCN[C@@H]2CCc3ccc(C(F)(F)F)cc32)c2ccccc2)c2nn[nH]c2n1` (stereo partly drawn) [Example 124, 7-(1-phenyl-3-{[(1R)-6-(trifluoromethyl)-2,3-dihydro-1H-inden-1-yl]amino}propyl)-3H-[1,2,3] triazolo[4,5-b] pyridin-5-amine], for which the values for the IC50 in test [1] and in test [2] were 101 to 999 nM and 1000 to 10000 nM, respectively.
The corresponding values for `Nc1cc(C(CCNC2CCC(c3ccc(F)cc3)CC2)c2ccccc2)c2nn[nH]c2n1` (stereo not drawn) [Example 125, 7-(3-{[4-(4-fluorophenyl)cyclohexyl]amino}-1-phenylpropyl)-3H-[1,2,3]triazolo[4,5-b]pyridin-5-amine] are 1 to 100 nM and 101 to 999 nM.
`Nc1cc(C(CCNC2CCC(Cc3ccccc3)(c3ccccc3)CC2)c2ccccc2)c2nn[nH]c2n1` (stereo not drawn) [Example 126, 7-{3-[(4-benzyl-4-phenylcyclohexyl)amino]-1-phenylpropyl}-3H-[1,2,3]triazolo[4,5-b]pyridin-5-amine]: the IC50 was 1 to 100 nM in test [1] and 1000 to 10000 nM in test [2].
